Test results from US11524966B1 (Valo Early Discovery, Inc., priority 2017, dated 2022).
pIC50: −log10 of the molar value.

target: T1, USP25 (USP25-His6, Boston Biochem E-546) (Homo sapiens, UniProt Q9UHP3); experiment: Ubiquitin-Rhodamine 110 Assay for USP25 Activity, Example A-2; type: biochemical; details: Ubiquitin-Rhodamine 110 assay, Example A-2; read-out: USP25 A-2 IC50 range
T1 construct: His6; purchased Boston Biochem E-546
T1 sequence (Q9UHP3 1-1055): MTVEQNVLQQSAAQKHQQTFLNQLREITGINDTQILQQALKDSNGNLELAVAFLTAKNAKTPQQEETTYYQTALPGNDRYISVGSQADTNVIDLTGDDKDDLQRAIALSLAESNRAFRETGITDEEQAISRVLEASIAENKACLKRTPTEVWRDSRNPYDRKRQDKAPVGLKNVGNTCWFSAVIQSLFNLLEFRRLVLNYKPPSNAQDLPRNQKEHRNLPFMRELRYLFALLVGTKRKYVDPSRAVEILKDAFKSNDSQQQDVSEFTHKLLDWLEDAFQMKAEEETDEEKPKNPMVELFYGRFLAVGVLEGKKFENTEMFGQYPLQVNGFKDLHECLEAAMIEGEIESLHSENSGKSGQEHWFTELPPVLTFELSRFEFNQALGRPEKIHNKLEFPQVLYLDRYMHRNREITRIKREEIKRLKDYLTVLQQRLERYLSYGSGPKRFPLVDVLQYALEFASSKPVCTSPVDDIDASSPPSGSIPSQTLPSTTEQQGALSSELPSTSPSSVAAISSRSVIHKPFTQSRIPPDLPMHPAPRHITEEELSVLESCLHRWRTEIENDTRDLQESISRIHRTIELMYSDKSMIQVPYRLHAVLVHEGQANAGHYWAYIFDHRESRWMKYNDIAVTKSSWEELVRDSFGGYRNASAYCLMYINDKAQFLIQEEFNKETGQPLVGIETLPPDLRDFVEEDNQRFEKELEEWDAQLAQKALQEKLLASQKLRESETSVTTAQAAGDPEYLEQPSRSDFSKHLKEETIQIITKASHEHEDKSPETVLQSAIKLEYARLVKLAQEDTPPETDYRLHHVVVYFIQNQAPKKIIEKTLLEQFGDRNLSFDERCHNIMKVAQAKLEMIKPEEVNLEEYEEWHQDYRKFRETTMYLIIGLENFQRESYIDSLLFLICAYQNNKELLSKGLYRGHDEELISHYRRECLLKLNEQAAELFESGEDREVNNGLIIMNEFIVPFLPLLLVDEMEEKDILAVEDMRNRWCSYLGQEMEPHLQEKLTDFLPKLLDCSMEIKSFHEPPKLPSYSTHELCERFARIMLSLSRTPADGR
Summary of the method: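 Inhibition is quantified as IC50 by 4-parameter fit of fluorescence (485/535 nm) from Ub-Rh110 hydrolysis. Enzyme USP25-His6 at 75 pM with 30 min compound preincubation, then 25 nM substrate for 45 min at room temperature in pH 8.0 Tris buffer containing BME.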

`CCn1ccc2cc(C(=O)N[C@H]3CCc4cc(N5C[C@H](OC)[C@@H](N)C5)cc(F)c4C3)nnc21` [Example 138, N-[(2S)-6-[(3S,4S)-3-amino-4-methoxypyrrolidin-1-yl]-8-fluoro-1,2,3,4-tetrahydronaphthalen-2-yl]-7-ethyl-7H-pyrrolo[2,3-c]pyridazine-3-carboxamide] and `CCn1ccc2cc(C(=O)N[C@@H]3CCc4cc(N5C[C@H](OC)[C@@H](N)C5)cc(F)c4C3)nnc21` [Example 139, N-[(2R)-6-[(3S,4S)-3-amino-4-methoxypyrrolidin-1-yl]-8-fluoro-1,2,3,4-tetrahydronaphthalen-2-yl]-7-ethyl-7H-pyrrolo[2,3-c]pyridazine-3-carboxamide] cannot be ordered by pIC50: under 5.70 for the first, under 5.70 for the second.

Compared with `Cc1ccc2c(N)c(C(=O)N[C@H]3COc4cc(N5C[C@H](OC6CC6)[C@@H](N)C5)ccc4C3)sc2n1` [Example 140, 3-amino-N-[(3R)-7-[(3S,4S)-3-amino-4-cyclopropoxypyrrolidin-1-yl]-3,4-dihydro-2H-1-benzopyran-3-yl]-6-methylthieno[2,3-b]pyridine-2-carboxamide], `Cc1ccc2c(N)c(C(=O)N[C@H]3COc4cc(N5C[C@H](OC6CCC6)[C@@H](N)C5)ccc4C3)sc2n1` [Example 141, 3-amino-N-[(3R)-7-[(3S,4S)-3-amino-4-cyclobutoxypyrrolidin-1-yl]-3,4-dihydro-2H-1-benzopyran-3-yl]-6-methylthieno[2,3-b]pyridine-2-carboxamide] is higher in pIC50: 5.70 to 6.70 for the first, 6.70 to 7.30 for the second. The second is the more potent here.

Compared with `CCO[C@H]1CN(c2ccc3c(n2)CC[C@H](NC(=O)c2sc4nc(C)ccc4c2N)C3)C[C@@H]1N` [Example 142, 3-amino-N-[(6S)-2-[(3S,4S)-3-amino-4-ethoxypyrrolidin-1-yl]-5,6,7,8-tetrahydroquinolin-6-yl]-6-methylthieno[2,3-b]pyridine-2-carboxamide], `CCO[C@@H]1CN(c2ccc3c(c2)OC[C@H](NC(=O)c2sc4nc(C)ccc4c2N)C3)C[C@@H]1N` [Example 151, 3-amino-N-[(3R)-7-[(3S,4R)-3-amino-4-ethoxypyrrolidin-1-yl]-3,4-dihydro-2H-1-benzopyran-3-yl]-6-methylthieno[2,3-b]pyridine-2-carboxamide] is higher in pIC50: under 5.70 for the first, 5.70 to 6.70 for the second.

`CO[C@@H]1CN(c2ccc3c(c2)CC[C@H](NC(=O)c2sc4nc(C)ccc4c2N)C3)C[C@@H]1N` [Example 143, 3-amino-N-[(2S)-6-[(3S,4R)-3-amino-4-methoxypyrrolidin-1-yl]-1,2,3,4-tetrahydronaphthalen-2-yl]-6-methylthieno[2,3-b]pyridine-2-carboxamide] and `CCO[C@H]1CN(c2ccc3c(c2)OC[C@H](NC(=O)c2sc4nc(C)ccc4c2N)C3)C[C@H]1N` [Example 152] fall in the same range of pIC50: 5.70 to 6.70 for the first, 5.70 to 6.70 for the second.

`CO[C@@H]1CN(c2cc(F)c3c(c2)OC[C@H](NC(=O)c2sc4nc(C)ccc4c2N)C3)C[C@@H]1N` [Example 145, 3-amino-N-[(3R)-7-[(3S,4R)-3-amino-4-methoxypyrrolidin-1-yl]-5-fluoro-3,4-dihydro-2H-1-benzopyran-3-yl]-6-methylthieno[2,3-b]pyridine-2-carboxamide] and `CO[C@H]1CN(c2cc(F)c3c(c2)OC[C@H](NC(=O)c2sc4nc(C)ccc4c2N)C3)C[C@H]1N` [Example 146] fall in the same range of pIC50: 5.70 to 6.70 for the first, 5.70 to 6.70 for the second.

`CO[C@H]1CN(c2ccc3c(c2)OC[C@H](NC(=O)c2sc4nc(C)cnc4c2N)C3)C[C@H]1N` [Example 148, 7-amino-N-[(3R)-7-[(3R,4S)-3-amino-4-methoxypyrrolidin-1-yl]-3,4-dihydro-2H-1-benzopyran-3-yl]-3-methylthieno[2,3-b]pyrazine-6-carboxamide] and `CO[C@@H]1CN(c2ccc3c(c2)OC[C@H](NC(=O)c2sc4nc(C)sc4c2N)C3)C[C@@H]1N` [Example 149, 6-amino-N-[(3R)-7-[(3S,4R)-3-amino-4-methoxypyrrolidin-1-yl]-3,4-dihydro-2H-1-benzopyran-3-yl]-2-methylthieno[2,3-d][1,3]thiazole-5-carboxamide] fall in the same range of pIC50: 5.70 to 6.70 for the first, 5.70 to 6.70 for the second.

`CO[C@H]1CN(c2ccc3c(c2)OC[C@H](NC(=O)c2sc4nc(C)sc4c2N)C3)C[C@H]1N` [Example 150] showed a pIC50 of 5.70 to 6.70.
